For assay [1], the target named is T1, KRAS G12D/SOS1 (Homo sapiens, UniProt Q07889).
T1 sequence (Q07889 1-1333): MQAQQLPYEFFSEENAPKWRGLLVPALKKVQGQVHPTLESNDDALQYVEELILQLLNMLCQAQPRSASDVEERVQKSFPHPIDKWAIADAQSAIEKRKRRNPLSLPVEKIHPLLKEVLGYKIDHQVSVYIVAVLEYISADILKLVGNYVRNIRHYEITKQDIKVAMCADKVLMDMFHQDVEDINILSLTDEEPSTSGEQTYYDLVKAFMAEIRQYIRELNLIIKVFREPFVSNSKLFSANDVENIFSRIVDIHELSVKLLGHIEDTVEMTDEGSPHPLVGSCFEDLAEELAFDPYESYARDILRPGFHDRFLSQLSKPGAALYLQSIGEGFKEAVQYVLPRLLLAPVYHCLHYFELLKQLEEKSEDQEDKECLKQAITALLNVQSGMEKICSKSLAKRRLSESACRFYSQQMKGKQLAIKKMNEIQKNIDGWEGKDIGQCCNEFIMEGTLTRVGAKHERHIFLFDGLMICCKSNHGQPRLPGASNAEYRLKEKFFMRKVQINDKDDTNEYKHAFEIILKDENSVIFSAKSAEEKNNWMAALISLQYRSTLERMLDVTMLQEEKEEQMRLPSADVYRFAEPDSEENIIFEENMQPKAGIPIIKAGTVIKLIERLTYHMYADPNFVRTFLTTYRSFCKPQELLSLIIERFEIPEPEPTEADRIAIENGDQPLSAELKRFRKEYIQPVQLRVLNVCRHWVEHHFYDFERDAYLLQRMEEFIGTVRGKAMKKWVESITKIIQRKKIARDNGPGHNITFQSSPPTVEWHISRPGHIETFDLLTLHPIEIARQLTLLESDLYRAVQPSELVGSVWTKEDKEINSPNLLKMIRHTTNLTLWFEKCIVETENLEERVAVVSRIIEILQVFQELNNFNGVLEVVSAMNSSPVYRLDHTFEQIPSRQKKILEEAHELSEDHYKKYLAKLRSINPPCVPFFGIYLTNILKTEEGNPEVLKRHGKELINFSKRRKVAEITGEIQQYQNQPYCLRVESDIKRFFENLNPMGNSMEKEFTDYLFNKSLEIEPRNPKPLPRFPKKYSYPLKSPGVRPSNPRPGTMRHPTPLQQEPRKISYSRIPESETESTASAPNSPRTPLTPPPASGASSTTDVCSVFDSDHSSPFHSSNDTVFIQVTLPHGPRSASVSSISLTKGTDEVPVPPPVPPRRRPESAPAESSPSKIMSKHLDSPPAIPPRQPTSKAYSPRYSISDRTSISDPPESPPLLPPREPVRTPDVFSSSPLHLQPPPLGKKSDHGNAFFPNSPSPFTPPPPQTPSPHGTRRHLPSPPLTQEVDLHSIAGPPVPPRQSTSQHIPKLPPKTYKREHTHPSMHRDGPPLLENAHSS
As to the kind of experiment: biochemical.

The target in another assay is T2, KRAS G12C/SOS1 (Homo sapiens, UniProt Q07889).
T2 sequence (Q07889 1-1333): T1 sequence (Q07889 1-1333)
The assay can be described thus: biochemical.

In assay [2] the target is T3, KRAS-WT/SOS1 (Homo sapiens, UniProt Q07889).
T3 sequence (Q07889 1-1333): T1 sequence (Q07889 1-1333)
As to the kind of experiment: biochemical.

Assay [3] addresses T1, KRAS G12D/SOS1. The assay can be described thus: KRAS G12D/SOS1 binding assay (HTRF). The conditions noted are these: Tag2-KRAS G12D with Tag1-SOS1, 10 μM GTP. (In general: Time-resolved FRET reads energy transfer from a long-lived donor to a nearby acceptor.)
Assay [4] deals with T3, KRAS-WT/SOS1. The assay can be described thus: KRAS-WT/SOS1 binding assay (HTRF). To be noted: Tag2-KRAS-WT with Tag1-SOS1, 10 μM GTP.

With `C[C@@H](NC(=O)c1cn(C2CCOCC2)c(=O)c2c[nH]nc12)c1cccc(C(F)(F)CO)c1` [Example 1, (R)—N-(1-(3-(1,1-difluoro-2-hydroxyethyl)phenyl)ethyl)-4-oxo-5-(tetrahydro-2H-pyran-4-yl)-4,5-dihydro-2H-pyrazolo[4,3-c]pyridine-7-carboxamide], the IC50 at KRAS G12D/SOS1 [1] and at KRAS G12C/SOS1 was < 100 nM each time. As for `C[C@@H](NC(=O)c1cn(C2CCOCC2)c(=O)c2c[nH]nc12)c1cccc(C(F)F)c1F` [Example 3, (R)-N-(1-(3-(difluoromethyl)-2-fluorophenyl)ethyl)-4-oxo-5-(tetrahydro-2H-pyran-4-yl)-4,5-dihydro-2H-pyrazolo[4,3-c]pyridine-7-carboxamide], the IC50 on KRAS G12D/SOS1 [1], at KRAS G12C/SOS1 and against KRAS-WT/SOS1 [2] was < 100 nM throughout. With `C[C@@H](NC(=O)c1cn(C2(C)CC2)c(=O)c2cn[nH]c12)c1cccc(C(F)(F)F)n1` [Example 8, (R)-5-(1-methylcyclopropyl)-4-oxo-N-(1-(6-(trifluoromethyl)pyridin-2-yl)ethyl)-4,5-dihydro-1H-pyrazolo[4,3-c]pyridine-7-carboxamide], the “Activity Data in Kras: SOS1 Assay, G12D” value at KRAS G12D/SOS1 [3] is on record as “C (C: 500~5 μM)”. The “Activity Data in Kras: SOS1 Assay, Wild Type” value (“Activity Data … Wild Type” for short) on KRAS-WT/SOS1 [4] is reported as “C (C: 500~5 μM)”. On to `C[C@@H](NC(=O)c1cn([C@H]2CC[C@@H](C(=O)N(C)CCO)CC2)c(=O)c2c[nH]nc12)c1cccc2c1CCC2(F)F` [Example 11, N—((R)-1-(1,1-difluoro-2,3-dihydro-1H-inden-4-yl)ethyl)-5-((1s,4S)-4-((2-hydroxyethyl)(methyl)carbamoyl)cyclohexyl)-4-oxo-4,5-dihydro-2H-pyrazolo[4,3-c]pyridine-7-carboxamide], for which the “Activity Data in Kras: SOS1 Assay, G12D” value on KRAS G12D/SOS1 [3] was “C (C: 500~5 μM)”. Besides, the “Activity Data … Wild Type” value at KRAS-WT/SOS1 [4] is reported as “C (C: 500~5 μM)”. For the molecule `COc1c(C2CCOCC2)cc(C(=O)N[C@H](C)c2cccc3c2CCC3(F)F)c2n[nH]cc12` [Example 16, N-[(1R)-1-(1,1-difluoro-2,3-dihydro-1H-inden-4-yl)ethyl]-4-methoxy-5-(oxan-4-yl)-2H-indazole-7-carboxamide], the IC50 – broadly, the midpoint of a concentration-inhibition curve – on KRAS G12C/SOS1 lay within 100 to 500 nM. Same read-out and setting: next, `COc1c(-c2ccc(=O)n(C)c2)cc(C(=O)N[C@H](C)c2cccc3c2CCC3(F)F)c2n[nH]cc12` [Example 17, N-[(1R)-1-(1,1-difluoro-2,3-dihydro-1H-inden-4-yl)ethyl]-4-methoxy-5-(1-methyl-6-oxo-1,6-dihydropyridin-3-yl)-2H-indazole-7-carboxamide]: < 100 nM. In the case of `Cc1nc(N[C@H](C)c2cccc(C(F)(F)CO)c2)c2c(n1)N(C)C(=O)N(C1CCOCC1)C2` [Example 25, (R)-5-((1-(3-(1,1-difluoro-2-hydroxyethyl)phenyl)ethyl)amino)-1,7-dimethyl-3-(tetrahydro-2H-pyran-4-yl)-3,4-dihydropyrimido[4,5-d]pyrimidin-2(1H)-one], the IC50 at KRAS G12C/SOS1 and against KRAS-WT/SOS1 [2] was 100 to 500 nM throughout. Take `Cc1nc(N[C@H](C)c2cccc3c2CCC3(F)F)c2c(n1)N(C)C(=O)N(C1CCOCC1)C2` [Example 26, (R)-5-((1-(1,1-difluoro-2,3-dihydro-1H-inden-4-yl)ethyl)amino)-1,7-dimethyl-3-(tetrahydro-2H-pyran-4-yl)-3,4-dihydropyrimido[4,5-d]pyrimidin-2(1H)-one]: the IC50 against KRAS G12C/SOS1 was in the range of 100 to 500 nM.

Take `COc1c(OC2CC(F)(F)C2)cc(C(=O)N[C@H](C)c2cccc3c2CCC3(F)F)c2n[nH]cc12` [Example 31, (R)-N-(1-(1,1-difluoro-2,3-dihydro-1H-inden-4-yl)ethyl)-5-(3,3-difluorocyclobutoxy)-4-methoxy-2H-indazole-7-carboxamide]: the “Activity Data in Kras: SOS1 Assay, G12D” value at KRAS G12D/SOS1 [3] was “C (C: 500~5 μM)”. The “Activity Data … Wild Type” value at KRAS-WT/SOS1 [4] is “C (C: 500~5 μM)”. For `COc1c(N2CCNCC2)cc(C(=O)N[C@H](C)c2cccc(C(F)(F)CO)c2)c2[nH]ncc12` [Example 33], the IC50 on KRAS G12D/SOS1 [1] and at KRAS-WT/SOS1 [2] was < 100 nM throughout.

As for `COc1c(C2CCN(C)CC2)cc(C(=O)N[C@H](C)c2cccc(C(F)(F)CO)c2)c2[nH]ncc12` [Example 34, N-[(1R)-1-[3-(1,1-difluoro-2-hydroxyethyl)phenyl]ethyl]-4-methoxy-5-(1-methylpiperidin-4-yl)-1H-indazole-7-carboxamide], the IC50 against KRAS G12D/SOS1 [1] and against KRAS-WT/SOS1 [2] was < 100 nM throughout.

Take `COc1c(C2CCNCC2)cc(C(=O)N[C@H](C)c2cccc(C(F)(F)CO)c2)c2[nH]ncc12` [Example 35, N-[(1R)-1-[3-(1,1-difluoro-2-hydroxyethyl)phenyl]ethyl]-4-methoxy-5-(piperidin-4-yl)-1H-indazole-7-carboxamide]: the IC50 against KRAS G12D/SOS1 [1] and at KRAS-WT/SOS1 [2] was < 100 nM throughout.

Regarding `COc1c(C2CCCNC2)cc(C(=O)N[C@H](C)c2cccc(C(F)(F)CO)c2)c2[nH]ncc12` (stereo partly drawn) [Example 36, N—((R)-1-(3-(1,1-difluoro-2-hydroxyethyl)phenyl)ethyl)-4-methoxy-5-(piperidin-3-yl)-1H-indazole-7-carboxamide], the IC50 against KRAS G12D/SOS1 [1] and against KRAS-WT/SOS1 [2] was < 100 nM throughout. For the molecule `COc1c(C2CCCN(C)C2)cc(C(=O)N[C@H](C)c2cccc(C(F)(F)CO)c2)c2[nH]ncc12` (stereo partly drawn) [Example 37, N—((R)-1-(3-(1,1-difluoro-2-hydroxyethyl)phenyl)ethyl)-4-methoxy-5-(1-methylpiperidin-3-yl)-1H-indazole-7-carboxamide], the IC50 against KRAS G12D/SOS1 [1] and against KRAS-WT/SOS1 [2] was < 100 nM throughout. As for `C[C@@H](NC(=O)c1cn(C2CCOCC2)c(=O)c2cc[nH]c12)c1cccc2c1CCC2(F)F` [Example 38, (R)—N-(1-(1,1-difluoro-2,3-dihydro-1H-inden-4-yl)ethyl)-4-oxo-5-(tetrahydro-2H-pyran-4-yl)-4,5-dihydro-1H-pyrrolo[3,2-c]pyridine-7-carboxamide], the IC50 against KRAS G12C/SOS1 was < 100 nM. As to `C[C@@H](NC(=O)c1cn(C2CCOCC2)c(=O)c2cc[nH]c12)c1cccc(C(F)(F)CO)c1` [Example 39, (R)—N-(1-(3-(1,1-difluoro-2-hydroxyethyl)phenyl)ethyl)-4-oxo-5-(tetrahydro-2H-pyran-4-yl)-4,5-dihydro-1H-pyrrolo[3,2-c]pyridine-7-carboxamide], the 50% inhibitory concentration (IC50) at KRAS G12C/SOS1 is < 100 nM. For the molecule `C[C@@H](NC(=O)c1cn(C2CCOCC2)c(=O)c2cc[nH]c12)c1cccc(C(F)F)c1F` [Example 40, (R)—N-(1-(3-(difluoromethyl)-2-fluorophenyl)ethyl)-4-oxo-5-(tetrahydro-2H-pyran-4-yl)-4,5-dihydro-1H-pyrrolo[3,2-c]pyridine-7-carboxamide], the IC50 against KRAS G12C/SOS1 was < 100 nM. Take `C[C@@H](NC(=O)c1cn(C2(C)CC2)c(=O)c2cc[nH]c12)c1cccc2c1CCC2(F)F` [Example 41, (R)—N-(1-(1,1-difluoro-2,3-dihydro-1H-inden-4-yl)ethyl)-5-(1-methylcyclopropyl)-4-oxo-4,5-dihydro-1H-pyrrolo[3,2-c]pyridine-7-carboxamide]: the IC50 at KRAS G12D/SOS1 [1] and on KRAS-WT/SOS1 [2] was < 100 nM each time.

`C[C@@H](NC(=O)c1cn(C2(C)CC2)c(=O)c2cc[nH]c12)c1cccc(C(F)(F)CO)c1` [Example 42, (R)—N-(1-(3-(1,1-difluoro-2-hydroxyethyl)phenyl)ethyl)-5-(1-methylcyclopropyl)-4-oxo-4,5-dihydro-1H-pyrrolo[3,2-c]pyridine-7-carboxamide]: the half-inhibitory concentration (IC50) at KRAS G12D/SOS1 [1] and at KRAS-WT/SOS1 [2] was < 100 nM throughout.

In the case of `COc1c(N2CCOCC2)nc(C(=O)N[C@H](C)c2cccc3c2CCC3(F)F)c2n[nH]cc12` [Example 44, (R)—N-(1-(1,1-difluoro-2,3-dihydro-1H-inden-4-yl)ethyl)-4-methoxy-5-morpholino-2H-pyrazolo[3,4-c]pyridine-7-carboxamide], the “Activity Data in Kras: SOS1 Assay, G12D” value on KRAS G12D/SOS1 [3] was “C (C: 500~5 μM)”. Besides, at KRAS-WT/SOS1 [4], the “Activity Data … Wild Type” value is on record as “C (C: 500~5 μM)”.

The values are drawn from patent publication US20240109887A1 (Viva Star Biosciences (Suzhou) Co., Ltd., priority 2021, published 2024).
